Key:
Assay in all cases: KinaseProfiler kinase panel
CDK5/p35(h) = CDK5/p35(h) (Homo sapiens (Human), UniProt Q00535); type: biochemical
CDK2/cyclinE(h) = CDK2/cyclinE(h) (Homo sapiens (Human), UniProt P24941); type: biochemical
CDK2/cyclinA(h) = CDK2/cyclinA(h) (Homo sapiens (Human), UniProt P24941); type: biochemical
PKG1α(h) = PKG1α(h) (Homo sapiens (Human), UniProt Q13976); type: biochemical
EGFR(T790M)(h) = EGFR(T790M)(h) (Homo sapiens (Human), UniProt P00533, T790M); type: biochemical
PIM-3(h) = PIM-3(h) (Homo sapiens (Human), UniProt Q86V86); type: biochemical
Axl(h) = Axl(h) (Homo sapiens (Human), UniProt P30530); type: biochemical
cKit(V654A)(h) = cKit(V654A)(h) (Homo sapiens (Human), UniProt P10721, V654A); type: biochemical
Flt1(h) = Flt1(h) (Homo sapiens (Human), UniProt P17948); type: biochemical
TAK1(h) = TAK1(h) (Homo sapiens (Human), UniProt O43318); type: biochemical
GSK3α(h) = GSK3α(h) (Homo sapiens (Human), UniProt P49840); type: biochemical
Hck(h) activated = Hck(h) activated (Homo sapiens (Human), UniProt P08631); type: biochemical
Src(1-530)(h) = Src(1-530)(h) (Homo sapiens (Human), UniProt P12931); type: biochemical
GSK3β(h) = GSK3β(h) (Homo sapiens (Human), UniProt P49841); type: biochemical
MST1(h) = MST1(h) (Homo sapiens (Human), UniProt Q13043); type: biochemical
Chain of MST1(h) (Q13043 whole entry): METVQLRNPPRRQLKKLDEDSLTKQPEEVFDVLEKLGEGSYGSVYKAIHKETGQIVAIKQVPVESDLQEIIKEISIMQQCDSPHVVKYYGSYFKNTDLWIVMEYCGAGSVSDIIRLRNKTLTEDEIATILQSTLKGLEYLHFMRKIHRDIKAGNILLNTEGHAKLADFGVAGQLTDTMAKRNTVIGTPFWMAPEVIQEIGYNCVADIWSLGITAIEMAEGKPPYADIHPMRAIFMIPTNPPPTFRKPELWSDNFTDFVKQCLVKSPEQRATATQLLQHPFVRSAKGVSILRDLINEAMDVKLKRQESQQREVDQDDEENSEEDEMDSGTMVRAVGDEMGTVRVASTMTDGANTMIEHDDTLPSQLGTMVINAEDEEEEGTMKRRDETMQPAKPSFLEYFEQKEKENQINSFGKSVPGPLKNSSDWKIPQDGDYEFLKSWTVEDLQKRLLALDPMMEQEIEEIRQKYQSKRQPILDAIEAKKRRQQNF

Fyn(h) = Fyn(h) (Homo sapiens (Human), UniProt P06241); type: biochemical
GCK(h) = GCK(h) (Homo sapiens (Human), UniProt Q12851); type: biochemical
Chain of GCK(h) (Q12851 whole entry): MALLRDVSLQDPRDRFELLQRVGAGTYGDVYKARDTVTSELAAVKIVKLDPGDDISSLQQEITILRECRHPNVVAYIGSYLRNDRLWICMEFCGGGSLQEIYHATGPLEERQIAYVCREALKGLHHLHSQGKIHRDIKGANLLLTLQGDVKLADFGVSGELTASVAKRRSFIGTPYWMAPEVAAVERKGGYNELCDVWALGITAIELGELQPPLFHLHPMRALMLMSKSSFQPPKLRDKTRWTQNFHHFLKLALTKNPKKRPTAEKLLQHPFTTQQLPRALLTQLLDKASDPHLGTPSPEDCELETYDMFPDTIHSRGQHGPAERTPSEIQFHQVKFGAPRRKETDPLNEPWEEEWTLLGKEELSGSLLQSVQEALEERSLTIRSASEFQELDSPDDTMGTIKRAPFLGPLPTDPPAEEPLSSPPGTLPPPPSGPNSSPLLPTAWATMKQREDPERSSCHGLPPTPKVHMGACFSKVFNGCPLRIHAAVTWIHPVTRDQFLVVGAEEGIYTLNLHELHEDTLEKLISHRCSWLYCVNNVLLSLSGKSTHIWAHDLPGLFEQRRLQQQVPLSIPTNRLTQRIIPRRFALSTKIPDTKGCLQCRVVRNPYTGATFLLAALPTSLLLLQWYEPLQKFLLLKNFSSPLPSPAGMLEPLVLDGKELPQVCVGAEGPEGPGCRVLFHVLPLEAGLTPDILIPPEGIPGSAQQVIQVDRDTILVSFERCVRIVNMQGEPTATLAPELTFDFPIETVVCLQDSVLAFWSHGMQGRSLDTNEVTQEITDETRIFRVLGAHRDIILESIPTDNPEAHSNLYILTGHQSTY

CHK2(h) = CHK2(h) (Homo sapiens (Human), UniProt O96017); type: biochemical
Rsk1(r) = Rsk1(r) (Rattus norvegicus (Rat), UniProt Q63531); type: biochemical
Rsk2(h) = Rsk2(h) (Homo sapiens (Human), UniProt P51812); type: biochemical
DRAK1(h) = DRAK1(h) (Homo sapiens (Human), UniProt Q9UEE5); type: biochemical
MAPK2(m) = MAPK2(m) (Mus musculus (Mouse), UniProt P63085); type: biochemical
TAO2(h) = TAO2(h) (Homo sapiens (Human), UniProt Q9UL54); type: biochemical
Chain of TAO2(h) (Q9UL54 whole entry): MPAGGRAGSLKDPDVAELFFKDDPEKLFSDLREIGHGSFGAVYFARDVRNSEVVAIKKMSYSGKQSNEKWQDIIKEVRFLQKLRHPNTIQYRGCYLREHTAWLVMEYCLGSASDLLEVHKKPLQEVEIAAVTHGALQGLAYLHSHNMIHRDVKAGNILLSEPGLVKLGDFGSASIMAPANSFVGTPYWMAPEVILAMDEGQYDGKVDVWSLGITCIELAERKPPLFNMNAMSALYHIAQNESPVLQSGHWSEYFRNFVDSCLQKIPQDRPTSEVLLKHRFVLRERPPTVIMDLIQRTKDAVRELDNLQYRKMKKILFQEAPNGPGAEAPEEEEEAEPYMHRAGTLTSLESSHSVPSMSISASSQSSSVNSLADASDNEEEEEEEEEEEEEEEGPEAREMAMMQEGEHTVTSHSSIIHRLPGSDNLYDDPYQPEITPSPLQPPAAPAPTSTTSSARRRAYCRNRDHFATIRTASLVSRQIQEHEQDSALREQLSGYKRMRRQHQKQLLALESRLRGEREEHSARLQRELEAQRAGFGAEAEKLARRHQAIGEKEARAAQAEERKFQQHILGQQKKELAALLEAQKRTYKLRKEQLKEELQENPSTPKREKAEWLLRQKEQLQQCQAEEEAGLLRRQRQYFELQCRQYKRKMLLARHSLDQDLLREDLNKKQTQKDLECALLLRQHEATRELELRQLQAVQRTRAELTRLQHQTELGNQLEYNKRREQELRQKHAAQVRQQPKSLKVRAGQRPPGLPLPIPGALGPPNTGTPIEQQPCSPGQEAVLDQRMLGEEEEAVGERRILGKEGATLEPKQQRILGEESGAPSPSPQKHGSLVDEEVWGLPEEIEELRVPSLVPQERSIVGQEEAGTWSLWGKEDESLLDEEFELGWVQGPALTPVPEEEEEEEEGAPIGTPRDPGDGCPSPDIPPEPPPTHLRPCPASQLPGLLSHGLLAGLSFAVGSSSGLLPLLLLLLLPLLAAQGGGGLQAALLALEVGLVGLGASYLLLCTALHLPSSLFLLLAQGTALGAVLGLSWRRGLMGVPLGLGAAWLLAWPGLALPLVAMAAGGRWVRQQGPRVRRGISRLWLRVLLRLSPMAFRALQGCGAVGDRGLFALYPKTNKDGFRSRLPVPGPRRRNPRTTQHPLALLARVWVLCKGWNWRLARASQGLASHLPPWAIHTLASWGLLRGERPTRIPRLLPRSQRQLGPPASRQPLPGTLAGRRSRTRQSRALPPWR

CK1γ1(h) = CK1γ1(h) (Homo sapiens (Human), UniProt Q9HCP0); type: biochemical
SAPK2a(T106M)(h) = SAPK2a(T106M)(h) (Homo sapiens (Human), UniProt Q16539, T106M); type: biochemical
MSSK1(h) = MSSK1(h) (Homo sapiens (Human), UniProt Q9UPE1); type: biochemical
Chain of MSSK1(h) (Q9UPE1 whole entry): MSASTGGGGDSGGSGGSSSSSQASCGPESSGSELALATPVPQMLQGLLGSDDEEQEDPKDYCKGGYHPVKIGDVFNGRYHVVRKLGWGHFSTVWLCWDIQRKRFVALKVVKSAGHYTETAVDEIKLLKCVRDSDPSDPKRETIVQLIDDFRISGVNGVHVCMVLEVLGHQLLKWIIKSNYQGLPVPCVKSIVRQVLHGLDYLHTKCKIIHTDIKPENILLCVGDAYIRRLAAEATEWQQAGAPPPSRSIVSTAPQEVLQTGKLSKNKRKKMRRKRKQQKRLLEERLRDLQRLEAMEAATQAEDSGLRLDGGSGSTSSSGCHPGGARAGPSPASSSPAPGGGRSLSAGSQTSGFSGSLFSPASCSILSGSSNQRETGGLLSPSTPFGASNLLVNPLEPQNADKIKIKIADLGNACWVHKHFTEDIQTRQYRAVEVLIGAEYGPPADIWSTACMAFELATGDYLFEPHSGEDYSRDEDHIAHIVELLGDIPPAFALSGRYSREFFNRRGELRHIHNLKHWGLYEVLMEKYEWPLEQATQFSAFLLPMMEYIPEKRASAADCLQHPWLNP

TGFBR1(h) = TGFBR1(h) (Homo sapiens (Human), UniProt P36897); type: biochemical
MLCK(h) = type: biochemical, human; settings: 1 μM
FGFR4(h) = FGFR4(h) (Homo sapiens (Human), UniProt P22455); type: biochemical
Chain of FGFR4(h) (P22455 22-802): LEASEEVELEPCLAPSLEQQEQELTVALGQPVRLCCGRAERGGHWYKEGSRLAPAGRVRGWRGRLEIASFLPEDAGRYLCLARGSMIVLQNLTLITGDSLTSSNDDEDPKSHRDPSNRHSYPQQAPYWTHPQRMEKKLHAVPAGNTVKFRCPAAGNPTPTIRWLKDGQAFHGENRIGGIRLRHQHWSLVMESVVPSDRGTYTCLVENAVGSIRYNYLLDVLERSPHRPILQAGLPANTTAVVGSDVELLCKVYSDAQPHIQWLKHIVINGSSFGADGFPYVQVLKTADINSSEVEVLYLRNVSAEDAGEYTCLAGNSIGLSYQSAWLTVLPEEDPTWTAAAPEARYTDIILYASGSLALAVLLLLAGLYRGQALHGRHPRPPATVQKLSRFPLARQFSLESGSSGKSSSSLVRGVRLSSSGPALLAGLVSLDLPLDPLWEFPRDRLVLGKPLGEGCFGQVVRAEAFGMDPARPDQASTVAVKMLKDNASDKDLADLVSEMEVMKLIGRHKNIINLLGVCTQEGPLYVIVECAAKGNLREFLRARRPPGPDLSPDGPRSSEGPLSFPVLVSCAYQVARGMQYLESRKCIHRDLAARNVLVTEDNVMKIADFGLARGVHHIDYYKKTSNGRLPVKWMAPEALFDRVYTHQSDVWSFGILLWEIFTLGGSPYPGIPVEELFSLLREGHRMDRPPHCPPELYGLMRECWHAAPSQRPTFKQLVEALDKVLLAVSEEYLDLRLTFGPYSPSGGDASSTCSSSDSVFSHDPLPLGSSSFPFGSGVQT

EphA5(h) = EphA5(h) (Homo sapiens (Human), UniProt P54756); type: biochemical
SAPK2a(h) = SAPK2a(h) (Homo sapiens (Human), UniProt Q16539); type: biochemical
EphB4(h) = EphB4(h) (Homo sapiens (Human), UniProt P54760); type: biochemical
JNK2α2(h) = JNK2α2(h) (Homo sapiens (Human), UniProt P45984); type: biochemical
PAK3(h) = PAK3(h) (Homo sapiens (Human), UniProt O75914); type: biochemical
PDGFRβ(h) = PDGFRβ(h) (Homo sapiens (Human), UniProt P09619); type: biochemical
BrSK1(h) = BrSK1(h) (Homo sapiens (Human), UniProt Q8TDC3); type: biochemical
MAPKAP-K3(h) = MAPKAP-K3(h) (Homo sapiens (Human), UniProt Q16644); type: biochemical
Chain of MAPKAP-K3(h) (Q16644 whole entry): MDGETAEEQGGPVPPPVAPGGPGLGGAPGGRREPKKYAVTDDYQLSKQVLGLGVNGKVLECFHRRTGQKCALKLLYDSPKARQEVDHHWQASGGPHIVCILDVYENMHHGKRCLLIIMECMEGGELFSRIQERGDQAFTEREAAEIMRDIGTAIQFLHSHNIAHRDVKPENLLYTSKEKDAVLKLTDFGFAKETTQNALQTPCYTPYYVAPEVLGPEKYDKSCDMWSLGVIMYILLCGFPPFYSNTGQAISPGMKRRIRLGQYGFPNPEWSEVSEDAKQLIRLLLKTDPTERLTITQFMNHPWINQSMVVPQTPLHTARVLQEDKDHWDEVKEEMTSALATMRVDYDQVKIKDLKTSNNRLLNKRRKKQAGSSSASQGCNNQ

SRPK1(h) = SRPK1(h) (Homo sapiens (Human), UniProt Q96SB4); type: biochemical
Tec(h) activated = Tec(h) activated (Homo sapiens (Human), UniProt P42680); type: biochemical
CHK1(h) = CHK1(h) (Homo sapiens (Human), UniProt O14757); type: biochemical

Chain of PKG1α(h) (Q13976 whole entry): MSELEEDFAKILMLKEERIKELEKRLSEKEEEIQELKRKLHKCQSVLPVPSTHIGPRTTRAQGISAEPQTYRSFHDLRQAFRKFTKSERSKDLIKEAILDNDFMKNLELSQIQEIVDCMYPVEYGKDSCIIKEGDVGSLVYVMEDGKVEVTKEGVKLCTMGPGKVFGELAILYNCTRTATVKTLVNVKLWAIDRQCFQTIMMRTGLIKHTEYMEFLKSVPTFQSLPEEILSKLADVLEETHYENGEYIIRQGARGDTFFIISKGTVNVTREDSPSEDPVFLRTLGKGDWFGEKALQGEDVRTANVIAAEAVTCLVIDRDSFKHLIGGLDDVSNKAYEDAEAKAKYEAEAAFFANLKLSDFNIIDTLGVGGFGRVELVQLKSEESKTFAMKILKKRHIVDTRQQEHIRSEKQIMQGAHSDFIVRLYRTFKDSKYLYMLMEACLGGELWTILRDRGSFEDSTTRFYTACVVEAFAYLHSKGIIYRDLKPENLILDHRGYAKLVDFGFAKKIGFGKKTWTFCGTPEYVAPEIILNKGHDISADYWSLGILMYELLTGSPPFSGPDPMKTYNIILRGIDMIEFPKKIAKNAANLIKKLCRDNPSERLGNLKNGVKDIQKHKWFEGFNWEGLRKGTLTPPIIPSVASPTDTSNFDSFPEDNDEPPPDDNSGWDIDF

Compound: CCn1c(N2CCNCC2)nc2c(Br)c(Br)c(Br)c(Br)c21 [Compound 416, 4,5,6,7-tetrabromo-1-ethyl-2-(piperazin-1-yl)-1H-benzo[d]imidazole]
- remaining activity at 1 µM (CDK5/p35(h)): 2%
- remaining activity at 1 µM (CDK2/cyclinE(h)): 6%
- remaining activity at 1 µM (CDK2/cyclinA(h)): 7%
- remaining activity at 1 µM (PKG1α(h)): 7%
- remaining activity at 1 µM (EGFR(T790M)(h)): 28%
- remaining activity at 1 µM (PIM-3(h)): 34%
- remaining activity at 1 µM (Axl(h)): 36%
- remaining activity at 1 µM (cKit(V654A)(h)): 36%
- remaining activity at 1 µM (Flt1(h)): 40%
- remaining activity at 1 µM (TAK1(h)): 52%
- remaining activity at 1 µM (GSK3α(h)): 60%
- remaining activity at 1 µM (Hck(h) activated): 63%
- remaining activity at 1 µM (Src(1-530)(h)): 65%
- remaining activity at 1 µM (GSK3β(h)): 66%
- remaining activity at 1 µM (MST1(h)): 71%
- remaining activity at 1 µM (Fyn(h)): 73%
- remaining activity at 1 µM (GCK(h)): 75%
- remaining activity at 1 µM (CHK2(h)): 76%
- remaining activity at 1 µM (Rsk1(r)): 79%
- remaining activity at 1 µM (Rsk2(h)): 81%
- remaining activity at 1 µM (DRAK1(h)): 82%
- remaining activity at 1 µM (MAPK2(m)): 82%
- remaining activity at 1 µM (TAO2(h)): 82%
- remaining activity at 1 µM (CK1γ1(h)): 83%
- remaining activity at 1 µM (SAPK2a(T106M)(h)): 86%
- remaining activity at 1 µM (MSSK1(h)): 87%
- remaining activity at 1 µM (TGFBR1(h)): 87%
- % remaining activity (MLCK(h)): 88%
- remaining activity at 1 µM (FGFR4(h)): 94%
- remaining activity at 1 µM (EphA5(h)): 99%
- remaining activity at 1 µM (SAPK2a(h)): 99%
- remaining activity at 1 µM (EphB4(h)): 100%
- remaining activity at 1 µM (JNK2α2(h)): 100%
- remaining activity at 1 µM (PAK3(h)): 100%
- remaining activity at 1 µM (PDGFRβ(h)): 102%
- remaining activity at 1 µM (BrSK1(h)): 103%
- remaining activity at 1 µM (MAPKAP-K3(h)): 106%
- remaining activity at 1 µM (SRPK1(h)): 106%
- remaining activity at 1 µM (Tec(h) activated): 107%
- remaining activity at 1 µM (CHK1(h)): 113%

From US8604217B2, “Compound, a process for its preparation, a pharmaceutical composition, use of a compound, a method for modulating or regulating serine/threonine kinases and a serine/threonine kinases modulating agent” (Selvita S.A., priority 2009, dated 2013)
